Data from patent US8193193B2, “Agent for prevention or treatment of glaucoma” (Kowa Co., Ltd., priority 2005, dated 2012).

How the values were obtained:
[1] = tested on: IOP; assay: Ocular hypotensive effect after instillation, alone or in combination, in rabbits (change from initial IOP); type: in vivo, Japanese white rabbits; details: male JW rabbits, brinzolamide 1%, 50 μL; for persistence of ocular hypotensive action (FIG. 2): after 4 and also 5 hours from instillation, 1.5% solution; for persistence of ocular hypotensive action (FIG. 1): after 3 or 4 hours from instillation, 0.5% solution
Method: To examine usefulness of combination use of a Rho kinase inhibitor and a carbonic anhydrase inhibitor, the ocular hypotensive effects were compared by administering either of these drugs alone or both in combination to laboratory animals. (S)-(−)-1-(4-fluoro-5-isoquinolinesulfonyl)-2-methyl-1,4-homopiperazine-hydrochloride dihydrate was dissolved in physiological saline, and the solution was neutralized (pH 6.0) by adding sodium dihydrogenphosphate and sodium hydroxide to prepare a (S)-(−)-1-(4-fluoro-5-isoquinolinesulfonyl)-2-methyl-1,4-homopiperazine solution at a desired concentration. The commercially available “Eril® S Injection” (Asahi Kasei Pharma) was used as it was. The commercially available “Azopt® Ophthalmic Suspension 1%” (Alcon Japan Ltd.) was used as it was. The ocular hypotensive effect was examined after the combination use of (S)-(−)-1-(4-fluoro-5-isoquinolinesulfonyl)-2-methyl-1,4-homopiperazine and brinzolamide. As a control, the ocular hypotensive effect was also examined after the use of brinzolamide alone or (S)-(−)-1-(4-fluoro-5-isoquinolinesulfonyl)-2-methyl-1,4-homopiperazine alone. Similarly, the ocular hypotensive effect was examined after the combination use of hexahydro-1-(5-isoquinolinesulfonyl)-1H-1,4-diazepine and brinzolamide. As a control, the ocular hypotensive effect was also examined after the use of brinzolamide alone or hexahydro-1-(5-isoquinolinesulfonyl)-1H-1,4-diazepine alone. (S)-(−)-1-(4-fluoro-5-isoquinolinesulfonyl)-2-methyl-1,4-homopiperazine solution: 0.5% solution (instillation volume, 50 μL) Hexahydro-1-(5-isoquinolinesulfonyl)-1H-1,4-diazepine solution: fasudil hydrochloride hydrate injection (1.5% solution [trade name: Eril® S Injection]; instillation volume, 50 μL) Brinzolamide solution: brinzolamide ophthalmic solution ([trade name: Azopt® Ophthalmic Suspension 1%]; instillation volume, 50 μL) Laboratory animals: Japanese white rabbits (male JW rabbits, 5 animals per group) 1). One drop of 0.4% oxybuprocaine hydrochloride ophthalmic solution (trade name: Benoxil Ophthalmic Solution 0.4%) was instilled in both eyes of the laboratory animals for local anesthesia (only data for the instilled eyes are shown). 2) IOP was measured immediately before administration of the test compound solution as the initial IOP. 3) The brinzolamide solution was instilled in one eye of the laboratory animals, followed by the instillation of (S)-(−)-1-(4-fluoro-5-isoquinolinesulfonyl)-2-methyl-1,4-homopiperazine solution in the same eye. 4) At 1 hour, 2 hours, 3 hours, 4 hours, and 5 hours after the instillation of both drugs, one drop each of 0.4% oxybuprocaine hydrochloride ophthalmic solution was instilled in both eyes for local anesthesia, and IOP was measured. […]

[2] = tested on: IOP; details: rabbits with normal IOP, cited from earlier work

SMILES: O=S(=O)(c1cccc2cnccc12)N1CCCNCC1 [hexahydro-1-(5-isoquinolinesulfonyl)-1H-1,4-diazepine]
- persistence of ocular hypotensive action (FIG. 2) [1]: ocular hypotensive effect disappeared

SMILES: C[C@H]1CNCCCN1S(=O)(=O)c1cccc2cncc(F)c12 [(S)-(−)-1-(4-fluoro-5-isoquinolinesulfonyl)-2-methyl-1,4-homopiperazine]
- persistence of ocular hypotensive action (FIG. 1) [1]: ocular hypotensive effect disappeared

SMILES: C[C@@H](N)c1ccc(C(=O)Nc2ccnc3[nH]ccc23)cc1 [Y-39983, 4-[(1R)-1-aminoethyl]-N-1H-pyrrolo[2,3-b]pyridin-4-ylbenzamide]
- time after instillation from which IOP is lowered [2]: 1 h
- maximum IOP reduction ([2]; instillation, concentration of 0.1%): 15 mmHg

SMILES: CCN[C@H]1CN(CCCOC)S(=O)(=O)c2sc(S(N)(=O)=O)cc21 [brinzolamide]
- persistence of ocular hypotensive action (FIG. 1) [1]: ocular hypotensive effect disappeared
- persistence of ocular hypotensive action (FIG. 2) [1]: ocular hypotensive effect disappeared
